{
  "source": "the supplement of paper PMC10307832",
  "test_in_all_cases": "relative viability (nuclei count vs DMSO), 5 days (fraction); higher = more cells survive",
  "key": {"[1]": {"test_system": "ABC-1", "procedure,_shortened": "(§1)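 Lung cancer cell lines were seeded in 1536-well plates and dosed by pin tool the next day, with either a single drug or a fixed anchor-drug dose combined with five library-drug doses (not always all listed) spaced in √10 steps. Five days later, one step fixed the cells and stained their nuclei (final 0.05% Triton X-100, 1% formaldehyde, 1 ug/ml Hoechst), and nuclei were counted on 4× images. Relative viability is the nuclei count in treated wells divided by the count in vehicle wells, and each value is the median of duplicate plates.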"}, "[2]": {"test_system": "HCC-827", "procedure,_shortened": "as §1"}, "[3]": {"test_system": "NCI-H1666", "procedure,_shortened": "as §1"}, "[4]": {"test_system": "NCI-H1975", "procedure,_shortened": "as §1"}, "[5]": {"test_system": "NCI-H322M", "procedure,_shortened": "as §1"}, "[6]": {"test_system": "NCI-H2170", "procedure,_shortened": "as §1"}, "[7]": {"test_system": "BEN", "procedure,_shortened": "as §1"}, "[8]": {"test_system": "LXF-289", "procedure,_shortened": "as §1"}, "[9]": {"test_system": "HOP-62", "procedure,_shortened": "as §1"}, "[10]": {"test_system": "NCI-H358", "procedure,_shortened": "as §1"}, "[11]": {"test_system": "EPLC-272H", "procedure,_shortened": "as §1"}, "[12]": {"test_system": "NCI-H2405", "procedure,_shortened": "as §1"}, "[13]": {"test_system": "UMC-11", "procedure,_shortened": "as §1"}, "[14]": {"test_system": "NCI-H727", "procedure,_shortened": "as §1"}, "[15]": {"test_system": "NCI-H520", "procedure,_shortened": "as §1"}, "[16]": {"test_system": "NCI-H3122", "procedure,_shortened": "as §1"}, "[17]": {"test_system": "EKVX", "procedure,_shortened": "as §1"}, "[18]": {"test_system": "NCI-H23", "procedure,_shortened": "as §1"}, "[19]": {"test_system": "SK-MES-1", "procedure,_shortened": "as §1"}, "[20]": {"test_system": "LU99A", "procedure,_shortened": "as §1"}, "[21]": {"test_system": "NCI-H838", "procedure,_shortened": "as §1"}},
  "data": [
    {"smiles": "COCC1(CO)C(=O)C2CCN1CC2", "note": "(stereo not drawn) [PRIMA-1MET] + Nc1ncn([C@H]2C[C@H](O)[C@@H](CO)O2)c(=O)n1 [Decitabine] (partner 2 µM)", "values": [
      {"measurement": "relative viability", "setting": "[1]; first compound 0.2 µM", "result": 1.07},
      {"measurement": "relative viability", "setting": "[1]; first compound 2 µM", "result": 0.983},
      {"measurement": "relative viability", "setting": "[1]; first compound 6.325 µM", "result": 1.36},
      {"measurement": "relative viability", "setting": "[1]; first compound 20 µM", "result": 0.552},
      {"measurement": "relative viability", "setting": "[2]; first compound 0.2 µM", "result": 0.343},
      {"measurement": "relative viability", "setting": "[2]; first compound 0.6325 µM", "result": 0.157},
      {"measurement": "relative viability", "setting": "[2]; first compound 2 µM", "result": 0.302},
      {"measurement": "relative viability", "setting": "[2]; first compound 6.325 µM", "result": 0.384},
      {"measurement": "relative viability", "setting": "[2]; first compound 20 µM", "result": 0.305},
      {"measurement": "relative viability", "setting": "[3]; first compound 0.2 µM", "result": 0.637},
      {"measurement": "relative viability", "setting": "[3]; first compound 0.6325 µM", "result": 0.492},
      {"measurement": "relative viability", "setting": "[3]; first compound 2 µM", "result": 0.645},
      {"measurement": "relative viability", "setting": "[3]; first compound 6.325 µM", "result": 0.724},
      {"measurement": "relative viability", "setting": "[3]; first compound 20 µM", "result": 0.756},
      {"measurement": "relative viability", "setting": "[4]; first compound 0.2 µM", "result": 0.389},
      {"measurement": "relative viability", "setting": "[4]; first compound 0.6325 µM", "result": 0.329},
      {"measurement": "relative viability", "setting": "[4]; first compound 2 µM", "result": 0.343},
      {"measurement": "relative viability", "setting": "[4]; first compound 6.325 µM", "result": 0.431},
      {"measurement": "relative viability", "setting": "[4]; first compound 20 µM", "result": 0.371},
      {"measurement": "relative viability", "setting": "[5]; first compound 0.2 µM", "result": 0.725},
      {"measurement": "relative viability", "setting": "[5]; first compound 0.6325 µM", "result": 0.696},
      {"measurement": "relative viability", "setting": "[5]; first compound 6.325 µM", "result": 0.714},
      {"measurement": "relative viability", "setting": "[5]; first compound 20 µM", "result": 0.6},
      {"measurement": "relative viability", "setting": "[6]; first compound 0.2 µM", "result": 0.42},
      {"measurement": "relative viability", "setting": "[6]; first compound 0.6325 µM", "result": 0.324},
      {"measurement": "relative viability", "setting": "[6]; first compound 2 µM", "result": 0.43},
      {"measurement": "relative viability", "setting": "[6]; first compound 6.325 µM", "result": 0.457},
      {"measurement": "relative viability", "setting": "[6]; first compound 20 µM", "result": 0.457},
      {"measurement": "relative viability", "setting": "[7]; first compound 0.2 µM", "result": 0.747},
      {"measurement": "relative viability", "setting": "[7]; first compound 0.6325 µM", "result": 0.473},
      {"measurement": "relative viability", "setting": "[7]; first compound 6.325 µM", "result": 0.652},
      {"measurement": "relative viability", "setting": "[7]; first compound 20 µM", "result": 0.632},
      {"measurement": "relative viability", "setting": "[8]; first compound 0.2 µM", "result": 0.383},
      {"measurement": "relative viability", "setting": "[8]; first compound 0.6325 µM", "result": 0.306},
      {"measurement": "relative viability", "setting": "[8]; first compound 2 µM", "result": 0.349},
      {"measurement": "relative viability", "setting": "[8]; first compound 6.325 µM", "result": 0.373},
      {"measurement": "relative viability", "setting": "[8]; first compound 20 µM", "result": 0.372},
      {"measurement": "relative viability", "setting": "[9]; first compound 0.2 µM", "result": 0.22},
      {"measurement": "relative viability", "setting": "[9]; first compound 0.6325 µM", "result": 0.217},
      {"measurement": "relative viability", "setting": "[9]; first compound 2 µM", "result": 0.207},
      {"measurement": "relative viability", "setting": "[9]; first compound 6.325 µM", "result": 0.203},
      {"measurement": "relative viability", "setting": "[9]; first compound 20 µM", "result": 0.169},
      {"measurement": "relative viability", "setting": "[10]; first compound 0.2 µM", "result": 0.214},
      {"measurement": "relative viability", "setting": "[10]; first compound 0.6325 µM", "result": 0.154},
      {"measurement": "relative viability", "setting": "[10]; first compound 2 µM", "result": 0.215},
      {"measurement": "relative viability", "setting": "[10]; first compound 6.325 µM", "result": 0.207},
      {"measurement": "relative viability", "setting": "[10]; first compound 20 µM", "result": 0.183},
      {"measurement": "relative viability", "setting": "[11]; first compound 0.2 µM", "result": 0.353},
      {"measurement": "relative viability", "setting": "[11]; first compound 0.6325 µM", "result": 0.306},
      {"measurement": "relative viability", "setting": "[11]; first compound 2 µM", "result": 0.323},
      {"measurement": "relative viability", "setting": "[11]; first compound 6.325 µM", "result": 0.392},
      {"measurement": "relative viability", "setting": "[11]; first compound 20 µM", "result": 0.272},
      {"measurement": "relative viability", "setting": "[12]; first compound 0.2 µM", "result": 0.593},
      {"measurement": "relative viability", "setting": "[12]; first compound 0.6325 µM", "result": 0.508},
      {"measurement": "relative viability", "setting": "[12]; first compound 6.325 µM", "result": 0.645},
      {"measurement": "relative viability", "setting": "[12]; first compound 20 µM", "result": 0.296},
      {"measurement": "relative viability", "setting": "[13]; first compound 0.2 µM", "result": 0.675},
      {"measurement": "relative viability", "setting": "[13]; first compound 0.6325 µM", "result": 0.477},
      {"measurement": "relative viability", "setting": "[13]; first compound 2 µM", "result": 0.399},
      {"measurement": "relative viability", "setting": "[13]; first compound 6.325 µM", "result": 0.668},
      {"measurement": "relative viability", "setting": "[13]; first compound 20 µM", "result": 0.46},
      {"measurement": "relative viability", "setting": "[14]; first compound 0.2 µM", "result": 0.594},
      {"measurement": "relative viability", "setting": "[14]; first compound 0.6325 µM", "result": 0.385},
      {"measurement": "relative viability", "setting": "[14]; first compound 6.325 µM", "result": 0.849},
      {"measurement": "relative viability", "setting": "[14]; first compound 20 µM", "result": 0.685},
      {"measurement": "relative viability", "setting": "[15]; first compound 0.2 µM", "result": 0.506},
      {"measurement": "relative viability", "setting": "[15]; first compound 2 µM", "result": 0.413},
      {"measurement": "relative viability", "setting": "[15]; first compound 6.325 µM", "result": 0.521},
      {"measurement": "relative viability", "setting": "[15]; first compound 20 µM", "result": 0.219},
      {"measurement": "relative viability", "setting": "[16]; first compound 0.2 µM", "result": 0.336},
      {"measurement": "relative viability", "setting": "[16]; first compound 0.6325 µM", "result": 0.288},
      {"measurement": "relative viability", "setting": "[16]; first compound 2 µM", "result": 0.425},
      {"measurement": "relative viability", "setting": "[16]; first compound 6.325 µM", "result": 0.367},
      {"measurement": "relative viability", "setting": "[16]; first compound 20 µM", "result": 0.425},
      {"measurement": "relative viability", "setting": "[17]; first compound 0.2 µM", "result": 0.407},
      {"measurement": "relative viability", "setting": "[17]; first compound 2 µM", "result": 0.277},
      {"measurement": "relative viability", "setting": "[17]; first compound 6.325 µM", "result": 0.336},
      {"measurement": "relative viability", "setting": "[17]; first compound 20 µM", "result": 0.199},
      {"measurement": "relative viability", "setting": "[18]; first compound 0.2 µM", "result": 0.277},
      {"measurement": "relative viability", "setting": "[18]; first compound 0.6325 µM", "result": 0.221},
      {"measurement": "relative viability", "setting": "[18]; first compound 2 µM", "result": 0.282},
      {"measurement": "relative viability", "setting": "[18]; first compound 6.325 µM", "result": 0.293},
      {"measurement": "relative viability", "setting": "[18]; first compound 20 µM", "result": 0.162},
      {"measurement": "relative viability", "setting": "[19]; first compound 0.2 µM", "result": 0.381},
      {"measurement": "relative viability", "setting": "[19]; first compound 0.6325 µM", "result": 0.32},
      {"measurement": "relative viability", "setting": "[19]; first compound 2 µM", "result": 0.376},
      {"measurement": "relative viability", "setting": "[19]; first compound 6.325 µM", "result": 0.339},
      {"measurement": "relative viability", "setting": "[19]; first compound 20 µM", "result": 0.337},
      {"measurement": "relative viability", "setting": "[20]; first compound 0.2 µM", "result": 0.776},
      {"measurement": "relative viability", "setting": "[20]; first compound 0.6325 µM", "result": 0.722},
      {"measurement": "relative viability", "setting": "[20]; first compound 2 µM", "result": 0.888},
      {"measurement": "relative viability", "setting": "[20]; first compound 6.325 µM", "result": 0.674},
      {"measurement": "relative viability", "setting": "[20]; first compound 20 µM", "result": 0.51},
      {"measurement": "relative viability", "setting": "[21]; first compound 0.2 µM", "result": 0.435},
      {"measurement": "relative viability", "setting": "[21]; first compound 0.6325 µM", "result": 0.312},
      {"measurement": "relative viability", "setting": "[21]; first compound 2 µM", "result": 0.474},
      {"measurement": "relative viability", "setting": "[21]; first compound 6.325 µM", "result": 0.472},
      {"measurement": "relative viability", "setting": "[21]; first compound 20 µM", "result": 0.453}
    ]}
  ]
}
